{"source": "patent US11534445B2", "about": "“Compositions and methods for immune-mediated cancer therapy” (Teclison Limited, priority 2015, dated 2022)", "key": {"[1]": {"system": "NCI-H460 human lung cancer cells", "test": "NCI-H460 lung cancer xenograft in BALB/c nude mice: tirapazamine plus vascular disrupting agent", "type": "in vivo, mouse", "details": "combretastatin A4 10 mg/kg i.v. or DMXAA 20 mg/kg i.v., 3-5 min after tirapazamine 30 mg/kg i.p.", "experimental": "Materials and methods: Human lung cancer NCI-H460 cells were purchased from ATCC and used in this study. Cells were sub-cultured within 5 passages before inoculated into the mice. After the animals' acclimation period, approximately 1.5×10^6 NCI-H460 cells in 200 μL of serum-free media/matrigel (50:50 v/v) were injected subcutaneously to each mouse under anesthesia with 3-4% isoflurane. BALB/c nude mice, male, about 4-5 weeks and 18-20 g in weight were purchased from Shanghai SLAC Laboratory Animal Co. Ltd., China and housed in vivarium in 3-5 mice/cage by treatment group. Mice had free access to food (irradiated, Shanghai SLAC Laboratory Animal Co. Ltd. China) and water (municipal tap water filtered by Mol Ultrapure Water System).\nMice from each group were euthanized with CO2 asphyxiation followed by cervical dislocation at day 18 after the first dose, tumors were collected, weighed, and their pictures taken. The formalin fixed tumors were used for histopathology work. After formalin fixation, the tumors were paraffin embedded to get FFPE blocks. One block was made for each tumor chunk from one mouse. The FFPE blocks were sectioned at about 4 μm thick and processed for H&E staining, histopathology examination, and quantification of tumor necrosis. Detailed results are discussed further below. […]"}, "[2]": {"details": "mouse, in vivo", "experimental": "(§1) Treatment of tumor-bearing HBx mice with tirapazamine and hepatic artery ligation: The HBx transgenic mice were subjected to the left hepatic artery ligation for 40 min and the silk ligation was subsequently untied. During the studies on the drug effects, 0.9% saline, doxorubicin (10 mg/kg), or TPZ (3 mg/kg) were injected into the tail vein of each mouse for 7 min before the hepatic artery ligation. After completion of the injection, a midline laparotomy was performed to expose the left lobe of liver and liver hilum to dissect the left or common hepatic artery for transient ligation. All mice were anaesthetized with intraperitoneal injection of 400 mg/kg avertin (Sigma-Aldrich, St. Louis, Mo., USA) during experiments. Serial serum samples were collected for evaluating the ALT and total bilirubin by using ARKRAY Spotchem EZ Chemistry Analyzer SP-4430 (Arkray, Inc., Kyoto, Japan) within the first week. After 1 or 7 days, the liver tissues were collected for HE staining."}, "[3]": {"system": "hepatocellular carcinoma (HCC) in HBx transgenic mice", "test": "Tirapazamine or doxorubicin plus left hepatic artery ligation (HAL) in tumor-bearing HBx transgenic mice: tumor necrosis by H&E histology", "type": "in vivo, mouse", "details": "for necrosis of HCCs in the territory of the left HAL, Day 7 (H&E): tirapazamine 3 mg/kg (n=3) or doxorubicin 10 mg/kg (n=2) IV + left HAL 40 min; for necrosis in the HCC within the territory of HAL, Day 1 post-treatment: tirapazamine 3 mg/kg or doxorubicin 10 mg/kg IV tail vein + transient left HAL, n=1 per group, histopathology", "experimental": "Materials and methods: All the HBx transgenic mice were bred and followed-up in a specific pathogen-free facility; the tails of individual mice were subsequently collected for the genotyping process on weaning at 3 weeks of age. […] Transgenic mice having tumors 0.5-2 cm in diameter were used for the study.\nas §1\nHistology and morphometric analysis of tumor necrosis: For each mouse, the liver tissue containing the whole tumor and the adjacent non-tumorous region were fixed overnight in 10% formaldehyde and embedded in paraffin. The liver tissue sections (3 μm thickness) crossing the whole tumor were subjected to hematoxylin and eosin (H&E) staining for histological analysis. The percentage of necrosis in each tumor was quantified by dividing the necrotic area by the total tumor area in five cross sections covering the whole tumor, by using the ImageJ software (Version 1.46r, National Institutes of Health, Bethesda, Md., USA).\nThe HBx transgenic mice spontaneously develop hepatocellular carcinoma at approximately 18 months. […] Next, the efficacy of tirapazamine in combination with HAL was investigated and compared with a commonly used chemotherapy agent, doxorubicin, in TACE. A small group was first tested to compare the effects of saline (n=1), doxorubicin (10 mg/kg, n=1) and tirapazamine (3 mg/kg, n=1) to treat HBx transgenic mice that had palpable HCC, along with transient left HAL. Mice were sacrificed 1 day after treatment with tirapazamine and transient left HAL.\nThe same study was conducted to examine the histopathology changes at 7 days post treatment. The number of mice used for each group were saline (n=2), doxorubicin (10 mg/kg, n=2) and tirapazamine (3 mg/kg, n=3)."}, "[4]": {"details": "rat, in vivo"}, "hepatocellular carcinoma": {"system": "hepatocellular carcinoma", "test": "Phase I dose-defining study of tirapazamine combined with trans-arterial embolization (TAE): efficacy by contrast MRI, modified RECIST", "type": "in vivo, human", "details": "for response on contrast enhanced MRI at 6th week after embolization: individual patients/lesions treated with tirapazamine before TAE", "description": "(§2) In order to test the clinical tolerability and efficacy of tirapazamine combined with TAE in humans, a phase I dose-defining study was initiated in US major medical centers to examine the tolerability, preliminary efficacy and determine the recommended phase 2 dose (RP2D) of tirapazamine when combined with TAE. HCC patients enrolled were Child-Pugh class A, were not surgical candidates and had up to 4 tumor lesions with no tumor lesion size greater than 10 cm and were suitable for embolization. The results of the first 12 evaluable patients were available for analysis.\n(§3) Three patients were enrolled in either cohort.\nThe preliminary efficacy of the first 12 patients was analyzed and is exemplified in FIG. 4. Efficacy outcome is read by contrast […] based on modified Response Evaluation Criteria In Solid Tumors (RECIST) criteria so that only the size of the viable tumor was measured. […] Three additional patients had over 30% necrosis or partial response (PR). The overall response rate (CR+PR) was 83%."}, "[5]": {"test": "Phase I dose-defining study of tirapazamine combined with TAE: tolerability", "type": "in vivo, human", "details": "3 patients per cohort", "description": "as §2, §3"}}, "note": "Entries after “also recorded” stand apart in the source; their conditions may differ."}
{"smiles": "Cc1ccc2c(=O)c3cccc(CC(=O)O)c3oc2c1C", "note": "[DMXAA, 5,6-Dimethylxanthenone-4-acetic acid]", "values": [{"measurement": "effect on tumor vasculature", "setting": "[1]", "value": "nearly immediate shutdown of the tumor vasculature"}]}
{"smiles": "COc1ccc(/C=C\\c2cc(OC)c(OC)c(OC)c2)cc1O", "note": "[combretastatin A4]", "values": [{"measurement": "effect on tumor vasculature", "setting": "[1]", "value": "nearly immediate shutdown of the tumor vasculature"}]}
{"smiles": "COc1cccc2c1C(=O)c1c(O)c3c(c(O)c1C2=O)C[C@@](O)(C(=O)CO)C[C@@H]3O[C@H]1C[C@H](N)[C@H](O)[C@H](C)O1", "note": "[doxorubicin]", "values": [{"measurement": "total bilirubin in serum", "setting": "[2]", "value": "within the normal range"}, {"measurement": "necrosis of HCCs in the territory of the left HAL, Day 7 (H&E)", "setting": "[3]", "value": "Little to no pathological changes"}, {"measurement": "necrosis in the HCC within the territory of HAL, Day 1 post-treatment", "setting": "[3]", "value": "about 5%"}]}
{"smiles": "Nc1n[n+]([O-])c2ccccc2[n+]1[O-]", "note": "[tirapazamine]", "values": [{"measurement": "tolerability of IA administration followed by hepatic artery ligation", "setting": "[4]", "value": "well tolerated profile"}, {"measurement": "total bilirubin in serum", "setting": "[2]", "value": "within the normal range"}, {"measurement": "overall response rate (CR+PR)", "setting": "hepatocellular carcinoma; first 12 evaluable patients", "value": 83, "unit": "%"}, {"measurement": "patients with over 30% necrosis or partial response (PR)", "setting": "hepatocellular carcinoma; first 12 evaluable patients", "value": "Three"}, {"measurement": "response on contrast enhanced MRI at 6th week after embolization", "setting": "hepatocellular carcinoma", "value": "complete response (CR)"}, {"measurement": "response on contrast enhanced MRI at 6th week after embolization", "setting": "hepatocellular carcinoma; listed as Tirapazamine", "value": "two treated lesions achieved CR"}, {"measurement": "largest diameter of untreated lesion at 6th week follow-up", "setting": "hepatocellular carcinoma; one patient, baseline 15 mm, two other lesions (26 and 10 mm) treated with tirapazamine + TAE", "value": 9, "unit": "mm"}, {"measurement": "complete response (CR) by modified RECIST", "setting": "hepatocellular carcinoma; single treatment of tirapazamine with TAE, first 12 patients", "value": "6/12"}, {"measurement": "tumor necrosis at dissection on Day 7 (pale color)", "setting": "[3]; drug IV + transient HAL, FIG. 2D", "value": "evident that tumor necrosis occurred"}, {"measurement": "necrosis of HCCs in the territory of the left HAL, Day 7 (H&E)", "setting": "[3]", "value": "90-99%"}, {"measurement": "inflammatory cell infiltration at margin of necrotic tumor", "setting": "[3]; tirapazamine 3 mg/kg IV + left HAL, day 7, FIG. 3 inserts", "value": "high degree of inflammatory cell infiltration; also recorded: very strong inflammatory infiltrates"}, {"measurement": "necrosis in the HCC within the territory of HAL, Day 1 post-treatment", "setting": "[3]", "value": "more than 99%"}, {"measurement": "effective dose combined with transient HAL", "setting": "[3]; titration study, HBx transgenic mouse model", "value": 3, "unit": "mg/kg"}, {"measurement": "toxicities / dose limiting toxicities", "setting": "[5]; intra-arterial (IA) via hepatic artery 5 and 10 mg/m^2 + TAE", "value": "no observed toxicities or dose limiting toxicities (DLT)"}, {"measurement": "toxicities / dose limiting toxicities", "setting": "[5]; systemic IV infusion 5 and 10 mg/m^2 + TAE", "value": "no observed toxicities or dose limiting toxicities (DLT)"}]}
